Set-up: species or system CD-1 mice
Conditions: mouse, in vivo
Experimental: Details of in vivo PK studies of KDU691 and LMV599 in CD-1 mice and monkeys can be found in the supplemental material.
Clinical chemistry and hematology
For the clinical analysis serum from 1 mL of clotted blood was analysed using the Cobas Integra 400 plus fully automated chemistry analyser. The following clinical parameters were determined: Alkaline phosphatase; Alanine Aminotransferase; Albumin: Aspartate aminotransfeasr; Bilirubin; Calcium; Cholesterol; Creatine kinase; Creatinine; C-reactive protein: Iron; Phosphate; Gamma-glutamyl transpeptidase; Glucose; Hemoglobin; Potassium; Lactate dehydrogenase; Sodium; Total protein; Urea Haematological parameters were determined from 1 mL EDTA-blood with a Sysmex XT-2000iV automated system. The following hematological parameters were determined: Basophilic granulocytes; Eosinophilic granulocytes; Erythrocytes; Hematocrit; Leucocytes; Leucocyte differentiation; Lymphocytes; Mean corpusculair hemoglobin; Mean corpusculair hemoglobin concentration; Mean corpusculair volume; Neutrophilic granulocytes; Red cell distribution width; Thrombocytes […]
For LC/MS/MS analysis, 50 µL of plasma samples were precipitated using 180 µL of acetonitrile:methanol:acetic acid (90:9.8:0.2) containing either related compound or warfarin as internal standard. After vortexing and centrifuging the mixture, the supernatant was removed and 5 µL of sample analyzed. […] In addition, quality control samples with three different concentrations were prepared in respective blank matrix and analyzed together with the unknown samples for validation purposes. Analyte quantitation was performed by LC/MS/MS using optimized conditions for each compound. […]
B), 3.92 – 4.0 min (85 – 35 % B) and 4.0 – 4.75 min (35 % B), with a flow rate of 1.0 mL/min, and a run time of 4.75 min. […] The most intense MRM transition (420.2/269) was used for quantitation using electrospray ionization in the positive mode. […]

For `CNC(=O)c1ccc(-c2cnc3cnc(C(=O)N(C)c4ccc(Cl)cc4)cn23)cc1` [KDU691], the “compound partitioning in the liver, Cmax over plasma” value was 1.7 ×, the “compound partitioning in the liver, exposure over plasma” value was 3.1 × and the “F (oral bioavailability)” value (po, 25 mg/kg) was 60%.
